Laboratory results published in patent US20230148226A1, “COMPOSITIONS OF STABLE FORMULATIONS OF VARENICLINE SALT OR BASE FORM WITH CONTROL ON NITROSO IMPURITIES” (The Texas A&M University System, priority 2021, published 2023).

How the values were obtained:
[1] = N-Nitroso-varenicline content in individual component (LCMS); format: physicochemical
Method: Liquid chromatography—mass spectrometry (LCMS) method development for NVC. Ultra-pressure liquid chromatography (UPLC) was used to detect NVC in samples. An ACQUITY™ UPLC™ H-Class PLUS System was utilized with the following configuration. The needle was washed with 80:20 methanol:water and the sample temperature was 10° C. The injection volume was 25 μL and a WATERS™ Acquity UPLC BEH Phenyl 1.7 μm 2.1×100 mm column was used having a column temperature of 30° C. Mobile phase A was 0.1% formic acid in water, and mobile phase B was acetonitrile. A 0.5 mL/min flow rate was utilized. Table 1 and Table 2, shown below, illustrate gradient method parameters and LCMS method validation for NVC, respectively.
Screening excipients for varenicline. Excipients were screened to determine which excipients were promoting nitroso impurities. Varenicline and excipients were physically mixed in 1:1 weight ratio and exposed to 40° C./75% RH for 4 weeks (Table 3 and Table 4).

[2] = FDA recommended limit; cited from earlier work

Compound | N-Nitroso-varenicline [1] [ng] | Acceptable daily intake limit (FDA) [2] [ng/day]
7,8,9,10-tetrahydro-6,10-methano-6H-pyrazino(2,3-h)(3)benzazepinex [Varenicline Tartrate, reference compound] | 0 | –
O.OC[C@H]1O[C@@H](O[C@H]2[C@H](O)[C@@H](O)C(O)O[C@@H]2CO)[C@H](O)[C@@H](O)[C@H]1O (stereo partly drawn) [Lactose Monohydrate] | 0 | –
CCN(CC)N=O [NDEA, N-nitrosodiethylamine] | – | 26.5
CC(C)N(N=O)C(C)C [NDIPA, N-nitrosodiisopropylamine] | – | 26.5
CN(C)N=O [NDMA, N-nitrosodimethylamine] | – | 96
CCN(N=O)C(C)C [NIPEA, N-nitrosoisopropylethyl amine] | – | 26.5
CN(CCCC(=O)O)N=O [NMBA, N-nitroso-N-methyl-4-aminobutanoic acid] | – | 96
O=NN1CC2CC(C1)c1cc3nccnc3cc12 [NVC, N-nitroso-varenicline] | – | 37
Magnesium Stearate | 0 | –
